This is an account of results in US20250041313A1, “COMBINATION THERAPY FOR TREATMENT OF CANCER” (CITY OF HOPE, priority 2023, published 2025).

In one experiment the test system is H446 spheroids. In words: Imaris mitochondrial morphology in spheroids. Particulars: Teri 1600 nM, Teri/Lur 800, 1600 nM/pM. The experiment is classed as cell-based, human. As to the method: Spheroids were transferred to low cell attachment dishes, grown for two days, and treated with drug. After treatment, spheroid samples were run with Western blot assay. For spheroid mitochondria visualization, they were stained with 250 nM MitoTracker® Red CMXRos and Hoechst from ThermoFisher Scientific (Waltham, MA) for 2 h after drug treatment. Spheroids were washed, fixated with 4% PFA, transferred into 96-well flat glass-bottom black microplate (Cellvis, Mountain View, CA), and mounted in wells. […] Z-stacks were acquired in Airyscan Fast mode with a 2.0 μm interval and optical zoom of 2.0. […] In Airyscan Fast mode excitation was provided by 405 nm (1.0%) and 561 nm (1.0%) lasers with gain and detection wavelengths: DAPI […] (450 nm) and Red […] (579 nm). 2D images were acquired with a 20×/0.8 NA Plan-Apochromat objective and captured with PMT detectors. […] Roundness ratios were calculated from Surface generated Bounding Box 00 Length measurements. Object lengths less than 0.1 μm were excluded, and lengths greater than 1.26 μm were separately analyzed as clusters. […] The Cells module was used to detect and quantify mitochondria and nucleus area from cell monolayers. […] Imaris includes nuclei in cytoplasm measurements, so mitochondrial area is calculated by subtracting nucleus area from cell cytoplasm area. […]

For the next experiment, the system named is SBC3 xenograft. Kind of experiment: SBC3 mouse xenograft, Lur/Leflu study. The experiment is classed as in vivo. Particulars: for tumor weight at end of study: Lur 0.5 mg/kg, Leflu 3.8 mg/kg, i.p. twice a week; for reduction in tumor size/weight: vs control. As to the method: Athymic nude nu/nu mice were obtained from Charles River, Wilmington, MA, and were acclimated for a week before beginning the experiment. All animal experiments were carried out in accordance with a protocol approved by the Institutional Animal Care and Use Committee COH (IACUC #16004). For treatments, mice were divided into 4 groups with five mice per group and subcutaneously injected into one flank with 2×10^6 SBC3 or SBC5 cells suspensions in 100 μl of PBS. Treatment started on the 14th day when tumors became palpable. Two in vivo studies were done in this project. SBC3 and SBC 5 xenograft with i) vehicle control, ii) […] 50 mg/kg, iii) Leflu 7.5 mg/kg, and iv) […]/Leflu. SBC3 with i) vehicle control, ii) Lur 0.5 mg/kg, iii) Leflu 3.8 mg/kg, and iv) Lur/Leflu. Treatments were given to mice via i.p. twice a week for 6 weeks. Animals were examined daily for signs of tumor growth. Tumors were measured in two dimensions using calipers and body weights were recorded. Animals were photographed on days 1, 5, 10, 15, 20, 25, 30, 35, and 40 after treatment. Tumors were removed on day 40 and photographed. At the end of the study, the mice were euthanized by CO2 asphyxiation followed by cervical dislocation. The tumor weights were compared between groups using an unpaired Student's t-test. A portion of the tumor was fixed in 10% buffered formaldehyde solution and paraffin-embedded for immuno-staining. FFPE tumor sections were stained with pDRP Ser^616 antibody. Tumor sections were deparaffinized and rehydrated, followed by heat-mediated antigen retrieval (pH 6, Dako). After permeabilization and blocking, tumor sections were stained with pDRP1 Ser^616 antibody overnight, washed and incubated with Alexa 488 secondary antibody for one hour, mounted and observed on an LSM 880 with a 10×/0.45 NA objective (Carl Zeiss). Immunofluorescent confocal images were acquired for each treatment (magnification:100×). Mean immunofluorescence intensities were calculated with ZEN 2.3 Lite software.

Another experiment concerns DMS114 cells. Kind of experiment: CCK-8 cytotoxicity assay, 72 h. Particulars: Homo sapiens, DMS-114. The experiment is classed as cell-based. The source says: (§1) We have determined cell cytotoxicity toward a specific drug, employing Cell Counting Kit-8 (Dojindo Molecular Technologies, Rockville, MD) as previously described (15).
(§2) The expression levels of DRP1 and DHODH in SCLC lines were compared with non-malignant BEAS 2B cells. Elevated levels of DRP1 and pDRP1 at Ser^616 were detected in all tested SCLC cells. Higher expression of DHODH was also observed in all seven SCLC cell lines (FIG. 1C). Previous studies have shown that Leflu and its active metabolite Teri regulate mitochondrial morphology (9,10,26). To find the effects of these two drugs on DRP1, AA docking (27) method was used to search for the best binding pocket for inhibitor binding. […] Leflu has a medium docking score of −5.6 kcal/mol. […] In vitro cytotoxicity effect of Teri and Leflu was tested in a panel of SCLC cell lines. Ten SCLC cell lines were treated with increasing concentrations of each drug for 72 h. […] In contrast, IC50 doses were much higher for Leflu. Upon oral administration of Leflu, over 80% of the drug is converted to Teri (28), indicating a potential reason for higher sensitivity to Teri. Two cell lines, SBC3 and SBC5, with IC50 2 μM and 30 μM, respectively, for Teri were used for additional experiments. […] The inhibitory effect was higher with Teri in both cell lines (FIG. 2A).
On the technique in general: Tetrazolium assays rely on reduction of a dye to a coloured formazan, in cell work by metabolically active cells.

In the next experiment the test system is DMS273 cells. In words: CCK-8 cytotoxicity assay, 72 h. The experiment is classed as cell-based. Particulars: Homo sapiens, DMS-273.
From the text: as §1, §2

A further experiment deals with H146 cells. Kind of experiment: CCK-8 cytotoxicity assay, 72 h. The experiment is classed as cell-based. Particulars: Homo sapiens, NCI-H146.
From the text: as §1, §2

The next experiment deals with H345 cells. Kind of experiment: CCK-8 cytotoxicity assay, 72 h. The experiment is classed as cell-based. To be noted: Homo sapiens, NCI-H345.
From the text: as §1, §2

The next experiment deals with H524 cells. Kind of experiment: CCK-8 cytotoxicity assay, 72 h. The experiment is classed as cell-based. To be noted: Homo sapiens, NCI-H524.
From the text: as §1, §2

Another experiment relates to H526 cells. Kind of experiment: CCK-8 cytotoxicity assay, 72 h. The experiment is classed as cell-based. To be noted: Homo sapiens, NCI-H526.
From the text: as §1, §2

A further experiment deals with H69 cells. Kind of experiment: CCK-8 cytotoxicity assay, 72 h. To be noted: Homo sapiens, NCI-H69. The experiment is classed as cell-based.
From the text: as §1, §2

For a further experiment, the system named is H82 cells. Kind of experiment: CCK-8 cytotoxicity assay, 72 h. The format is cell-based. To be noted: Homo sapiens, NCI-H82.
From the text: as §1, §2

Regarding `COc1ccc2[nH]c3c(c2c1)CCN[C@]31CS[C@@H]2c3c(OC(C)=O)c(C)c4c(c3[C@H](COC1=O)N1[C@@H]2[C@H]2c3c(cc(C)c(OC)c3O)C[C@@H]([C@@H]1O)N2C)OCO4` [Lurbinectedin, lurbinectedin], the “Percentages of round/fragmentated mitochondria” value in the experiment on H446 spheroids is “significantly decreased”. In the experiment with SBC3 xenograft, the “tumor weight at end of study” value amounted to 1.09 ± 0.11 g and the “reduction in tumor size/weight” value was around 39%.
A word on the IC50: it is the midpoint of a concentration-inhibition curve. A low value points to greater potency. For `C/C(O)=C(\C#N)C(=O)Nc1ccc(C(F)(F)F)cc1` [Teriflunomide, teriflunomide], the half-inhibitory concentration (IC50) in the experiment on DMS114 cells was 12.6 µM; in the experiment with DMS273 cells, 43.7 µM; in the experiment on H146 cells, 8.6 µM; in the experiment with H345 cells, above 43.7 µM; in the experiment with H524 cells, 10.8 µM; in the experiment with H526 cells, 7.6 µM. For the same compound, the figures for the IC50 in the experiment on H69 cells and in the experiment with H82 cells were 17.1 µM and 7.2 µM, respectively. Moreover, in the experiment on H446 spheroids, the “Percentages of round/fragmentated mitochondria” value is given as “significantly decreased”.
For the compound `Cc1oncc1C(=O)Nc1ccc(C(F)(F)F)cc1` [Leflunomide, leflunomide], the half-maximal inhibitory concentration (IC50) in the experiment with DMS114 cells is above 152 µM; with DMS273 cells, above 152 µM; in the experiment with H146 cells, 152 µM; in the experiment on H345 cells it was above 152 µM; in the experiment with H524 cells it was 133 µM; in the experiment on H526 cells, 48.3 µM. Moreover, the IC50 with H69 cells was above 152 µM; in the experiment with H82 cells, 103 µM. Further, the “tumor weight at end of study” value in the experiment on SBC3 xenograft came out at 1.39 ± 0.12 g. For the same compound, the “reduction in tumor size/weight” value in the experiment with SBC3 xenograft is around 22%.
